Like-named read-outs stand apart in the source and are kept apart here.
How the values were obtained:
[1] = tested on: T. gondii Me49 tachyzoites; test: TEM of T. gondii Me49 tachyzoites cultured in HFF under drug treatment; type: cell-based, Toxoplasma gondii
Method: For transmission electron microscopy (TEM), HFF grown in T25 culture flasks were infected with 10^7 TgMe49 tachyzoites and incubated for 3 h at 37 °C and 5% CO2. Subsequently, cultures were exposed to continuous treatment of 6h, 24 h, 48 h, and 72 h with 0.5 μM DCQ, RMB054 or RMB060, and 1 µM RMB055. Infected cultures treated with DMSO served as controls. TEM preparations were performed as described earlier. Samples were observed on a Philips CM 12 (Philips Research, Eindhoven, Holland) or a FEI Tecnai Spirit BioTwin TEM (TESCAN GmbH, Dormund, Germany), both operating at 80 kV.

T. gondii oocysts = tested on: T. gondii oocysts; parameters: method as in PMID 8735260; details: treatment commencing 10 days prior to infection with T. gondii oocysts; cited from earlier work
[2] = tested on: T. gondii β-gal tachyzoites; test: IC50 determination with T. gondii β-gal tachyzoites grown in HFF monolayers; type: cell-based, Toxoplasma gondii; details: for IC50: Toxoplasma gondii
Method: The efficacy of DCQ in vitro was determined using T. gondii β-gal constitutively expressing β-galactosidase grown in HFF monolayers. […] The low IC50 values and the low degree of cytotoxicity against HFF host cells in vitro encouraged us to examine the efficacy of oral treatment of CD1 mice infected with T. gondii oocysts with DCQ at 10 mg/kg/day for 5 days.
Due to the negative effects of treatment with DCQ, we investigated the efficacy in vitro of the three DCQ derivatives RMB054, RMB055 and RMB060 (Figure 1) in comparison to DCQ. Different concentrations of DCQ and the derivatives in DMSO were added to HFF either concomitantly with infection of T. gondii-β-gal tachyzoites, or 3 h after infection. […] The corresponding dose-response curves are shown in Supplementary Materials Figure S1. The viability of uninfected HFF was not impaired by the compounds up to concentrations of 5 µM (DCQ and RMB054) or 10 µM (RMB055, RMB060) (Table 1).
(§1) HFF cytotoxicity assessments and IC50 determinations using cultures of Tg-β-gal tachyzoites grown in HFF were carried out as described previously. IC50 values were calculated with the logit-log-transformation of the relative growth and subsequent regression analysis was done with the corresponding software tool contained in Microsoft Excel software package (Microsoft, Seattle, WA). For the long-term treatments, HFF grown in T25 culture flasks were infected with 5 × 10^5 TgMe49 tachyzoites, and after 4.5 h 0.5 μM DCQ, RMB054 or RMB060 were added. Infected cultures treated with the highest corresponding concentration of DMSO (0.5%) served as controls. Prolonged treatments for up to 24 days were carried out, with the addition of fresh medium containing the respective drug every 3–4 days. Cultures were inspected by light microscopy on a daily basis. On days 3, 6, 9, 13, 16, 20 and 24, the compound-containing medium was removed, and parasites were maintained without drug pressure until host cell lysis (plaque formation) was evident.

[3] = tested on: T. gondii Me49 tachyzoites; test: Long-term drug treatment of TgMe49-infected HFF in vitro; type: cell-based, Toxoplasma gondii
Method: as §1, with “Prolonged treatments for up to 24 days were carried out, with the addition of fresh medium containing the respective drug every 3–4 days.” left out

[4] = tested on: human foreskin fibroblasts (HFF); test: HFF cytotoxicity assessment; type: cell-based; details: for IC50: Homo sapiens, Fibroblast, uninfected HFF, no decline in viability over the concentration range
Method: as §1

[5] = Pregnancy interference test in non-infected BALB/c mice; type: in vivo; details: for No. of Non-Pregnant Mice/No. of Mice / No. of Pregnant Mice/No. of Mice: non-infected BALB/c; for Litter Size: total pups per group
Method: Eighteen female and 9 male BALB/c mice, all 8 weeks of age, were used. The females were oestrus-synchronized for 3 days by the Whitten effect and were mated by housing 2 females and 1 male for 72 h in one cage. Males were removed after mating and females were randomly assigned to 3 experimental groups of 6 mice each: DCQ; RMB060; placebo. On days 9–13 post-mating, DCQ and RMB060 were supplied at 10 mg/kg/day in 100 μL corn oil by oral gavage. The placebo group only received corn oil. Mice were observed and weighed on several days and on day 18, post-mating pregnant females were separated into single cages. […] Dams and pups were observed daily and data on fertility, litter size, neonatal and postnatal mortality was recorded for the following 2 weeks. All mice were euthanized in a chamber by isoflurane/CO2 inhalation.

[6] = tested on: BAG1 (bradyzoite antigen 1) expression in T. gondii Me49; test: Immunofluorescence staining for BAG1 expression in TgMe49-infected HFF; type: cell-based, Toxoplasma gondii; details: treatment for 48 h
Method: For immunofluorescence microscopy, 4 × 10^4 HFF were grown on glass coverslips for 24 h to form a sub-confluent monolayer and were exposed to 1.2 × 10^5 TgMe49 tachyzoites during 4 h at 37 °C and 5% CO2. The medium was replaced and supplemented with 20 nM DCQ and RMB060, or medium containing DMSO as control. Cultures infected with TgPgSp1 (low passage number) served as positive control for BAG1 (bradyzoite antigen 1) expression. Infected cells were cultured for 16 h, 24 h, and 48 h and fixed and labelled for immunofluorescence staining as described previously. A polyclonal rabbit anti-BAG1 antiserum was applied at 1:200 dilution, followed by a goat-anti-rabbit fluorescein-isothiocyanate conjugate (1:300), the monoclonal mouse anti-TgSAG1 antibody was diluted (1:100), followed by goat anti-mouse conjugated to tetramethylrhodamine-isothiocyanate at 1:300. Subsequently, samples were mounted in H-1200 Vectashield mounting medium (Vector Laboratories, Burlingame, CA, USA) containing 4,6-diamidino-2-phenylindole and were viewed on a Nikon E80i fluorescence microscope (Tokyo, Japan). Processing of images was performed using Openlab 5.5.2 (Improvision, PerkinElmer, Waltham, MA, USA) and the ImageJ software, version 1.53 m.

T. gondii = details: cited from earlier work
Sarcocystis neurona = tested on: Sarcocystis neurona; parameters: method as in PMID 23523012; details: cited from earlier work
[7] = HFF vs T. gondii, compound applied prior to / concomitantly with infection
[8] = Tg-β-gal in HFF, compound added 3 h post-infection, [upper, lower limit of 95% CI], read-out: IC50 T. gondii (nM) [LS, LI] Compound Added 3 h Post-infection
[9] = Tg-β-gal in HFF, compound added prior to / concomitantly with infection, [upper, lower limit of 95% CI], read-out: IC50 T. gondii (nM) [LS, LI] Compound Added Prior to Infection
[10] = short-term growth assays, added with infection or 3 h after, read-out: IC50 T. gondii, range depending on the time point of initiation of treatment
[11] = 10 mg/kg/day oral, days 9–13 post-mating

Row | Compound | Selectivity Index [2, 7] | IC50 [2, 8] [nM] | IC50 [2, 9] [nM] | IC50 [2, 10] [nM] | Concentration up to which viability of uninfected HFF was not impaired [4] [µM] | IC50 [4] [nM] | Interference in pregnancy [5, 11] | No. of Non-Pregnant Mice/No. of Mice [5, 11] | No. of Pregnant Mice/No. of Mice [5, 11] | Litter Size [5, 11] | Expression of the bradyzoite marker BAG1 [6] | other results
1 | CCCCCCCCCCOc1cc2c(O)c(C(=O)OCC)cnc2cc1OCC [DCQ, ethyl 6-decyloxy-7-ethoxy-4-oxo-1H-quinoline-3-carboxylate] | >4545 | 4.7 | 1.1 | 1.1 to 4.7 | 5 | > 5000 | strong interference in pregnancy outcome | 4/6 | 2/6 | 7 | induced the expression of BAG1 | Ultrastructural alterations of the parasite mitochondrion (TEM) ([1]; within 24 h): distinct alterations in the parasite mitochondrion; Outcome of prophylactic treatment in ewes (T. gondii oocysts): decreased pathological changes in the placental tissue; Parasiticidal effect after long-term treatment ([3]; 500 nM, 52 days): no parasiticidal effect; Parasiticidal effect in long-term treatment assays ([3]; up to 500 nM per day for 24 days): not parasiticidal; Neonatal Mortality ([5]; female, BALB/c, mouse, in vivo, po, 10 mg/kg/day): 0/7; Effect of treatment of infected cultures, T. gondii RH strain (T. gondii; 240 nM): tissue cyst formation; IC50 (T. gondii; read-out: IC50, inhibition of T. gondii proliferation in vitro): 12 nM; Activity against S. neurona schizonts (Sarcocystis neurona; 10 day treatment at 240 nM): parasiticidal activity; IC50 (Sarcocystis neurona; read-out: IC50 values for S. neurona merozoites): 0.6 to 1.1 nM
2 | CCCCCCCCCCOc1cc2c(OC(=O)N3CCN(S(C)(=O)=O)C3=O)c(C(=O)OCC)cnc2cc1OCC [RMB060] | >142,857 | 0.7 | 0.07 | 0.07 to 0.7 | 10 | > 10000 | only minor interference in pregnancy | 2/6 | 4/6 | 27 | expression of the bradyzoite marker BAG1 in the cytoplasm of some, but not all, parasites | Ultrastructural alterations of the parasite mitochondrion (TEM) ([1]; 500 nM for 6 h, treatment started 3 h after infection): mitochondrial matrix had a less electron dense appearance and dissolved cristae became evident; Concentration that caused a complete growth inhibition in dose response assays ([2]; T. gondii tachyzoites in HFF): 500 nM; Selectivity Index ([2]; compound added to intracellular parasites at 3 h post-infection): > 14,000; Killing of tachyzoites after long-term exposure ([3]; 300 nM for 52 days): did not result in the complete killing of all tachyzoites; Concentration to which tachyzoites adapted, fold the IC50 ([3]; exposure for longer timespans, parasites resumed proliferation and formed lysis plaques): up to 4286 fold; Postnatal Mortality [5, 11]: 0/24; Neonatal Mortality ([5]; first 2 days post-partum, 10 mg/kg/day oral, days 9–13 post-mating): 3/27; IC50 (T. gondii; read-out: previously reported IC50 against T. gondii): 1.1 nM

Reference: article PMC8587999, “Assessment of the Activity of Decoquinate and Its Quinoline-O-Carbamate Derivatives against Toxoplasma gondii In Vitro and in Pregnant Mice Infected with T. gondii Oocysts” (Molecules, 2021)
